This assay concerns the target Glucagon-like peptide 1 receptor (Homo sapiens, UniProt P43220). It counts as functional.

Glucagon-like peptide 1 receptor, sequence (P43220 whole entry): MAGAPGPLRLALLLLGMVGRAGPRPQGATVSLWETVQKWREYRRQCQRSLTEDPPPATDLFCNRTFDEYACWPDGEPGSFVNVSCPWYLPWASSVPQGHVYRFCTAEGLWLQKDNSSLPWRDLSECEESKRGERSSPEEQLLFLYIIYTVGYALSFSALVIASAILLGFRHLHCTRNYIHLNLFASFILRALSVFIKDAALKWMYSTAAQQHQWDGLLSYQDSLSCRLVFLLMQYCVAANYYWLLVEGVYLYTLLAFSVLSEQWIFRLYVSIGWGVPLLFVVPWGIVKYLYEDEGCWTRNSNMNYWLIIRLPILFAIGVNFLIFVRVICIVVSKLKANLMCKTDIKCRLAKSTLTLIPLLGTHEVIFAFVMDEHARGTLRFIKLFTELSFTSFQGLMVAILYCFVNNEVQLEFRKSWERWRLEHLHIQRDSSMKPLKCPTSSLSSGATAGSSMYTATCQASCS

`CCCNc1nc(C)c(S(=O)(=O)N2Cc3cc4c(cc3C[C@H]2C(=O)N[C@@H](Cc2ccc(-c3ccc(C#N)cc3)cc2)C(=O)O)OCC(c2ccc(OCc3ccc(Cl)c(Cl)c3)cc2)O4)s1` (stereo partly specified) registered an EC50 of 67 nM.
Consider `CCCCOC(=O)N1Cc2cc3c(cc2C[C@H]1C(=O)N[C@@H](Cc1ccc(-c2ccnc(C)c2C)cc1)C(=O)O)OC[C@H](c1ccc(OCc2ccc(Cl)c(Cl)c2)cc1)O3`, for which the EC50 is 64 nM.
In turn, `Cc1nccc(Oc2ccc(C[C@H](NC(=O)[C@@H]3Cc4cc5c(cc4CN3C(=O)OCC(C)C)O[C@@H](c3ccc(OCc4ccc(Cl)c(Cl)c4)cc3)CO5)C(=O)O)cc2)c1C` returned a 50% effective concentration (EC50) of 311 nM.
In turn, `Cc1nccc(-c2ccc(C[C@H](NC(=O)[C@@H]3Cc4cc5c(cc4CN3C(=O)N(C(C)C)C(C)C)O[C@@H](c3ccc(OCc4ccc(Cl)c(Cl)c4)cc3)CO5)C(=O)O)cc2)c1C` returned an EC50 of 73 nM.
Molecule `CCNc1nc(C)c(S(=O)(=O)N2Cc3cc4c(cc3C[C@H]2C(=O)N[C@@H](Cc2ccc(-c3ccc(Cl)cc3)cc2)C(=O)O)OCC(c2ccc(OCc3ccc(Cl)c(Cl)c3)cc2)O4)s1` (stereo partly specified) yielded an EC50 of 264 nM.
The molecule `Cc1nccc(-c2ccc(C[C@H](NC(=O)[C@@H]3Cc4cc5c(cc4CN3S(C)(=O)=O)O[C@@H](c3ccc(OCc4ccc(Cl)c(Cl)c4)cc3)CO5)C(=O)O)cc2)c1C` gave an EC50 of 267 nM.
In turn, `Cc1nc(C(=O)N2Cc3cc4c(cc3C[C@H]2C(=O)N[C@@H](Cc2ccc(Oc3ccnc(C)c3C)cc2)C(=O)O)OC[C@H](c2ccc(OCc3ccc(Cl)c(Cl)c3)cc2)O4)co1` returned an EC50 of 177 nM.
Molecule `Cc1nccc(-c2ccc(C[C@H](NC(=O)[C@@H]3Cc4cc5c(cc4CN3C(=O)OCc3ccccc3)O[C@@H](c3ccc(OCc4ccc(Cl)c(Cl)c4)cc3)CO5)C(=O)O)cc2)c1C` had an EC50 of 23 nM.
In turn, `Cc1nccc(-c2ccc(C[C@H](NC(=O)[C@@H]3Cc4cc5c(cc4CN3C(=O)OCC(C)(C)C)O[C@@H](c3ccc(OCc4ccc(Cl)c(Cl)c4)cc3)CO5)C(=O)O)cc2)c1C` had an EC50 of 87 nM.
In turn, `Cc1nc(C(=O)N2Cc3cc4c(cc3C[C@H]2C(=O)N[C@@H](Cc2ccc(-c3ccnc(C)c3C)cc2)C(=O)O)OC[C@H](c2ccc(OCc3ccc(Cl)c(Cl)c3)cc2)O4)c(C(F)(F)F)o1` came in with a concentration giving a half-maximal response (EC50) of 42 nM.
Molecule `CC[C@@H](c1ccccc1)N1Cc2cc3c(cc2C[C@H]1C(=O)N[C@@H](Cc1ccc(-c2ccc(C#N)nc2)cc1)C(=O)O)OC[C@H](c1ccc(OCc2ccc(Cl)c(Cl)c2)cc1)O3` had an EC50 of 154 nM.
`Cc1nc(NCC2CC2)sc1S(=O)(=O)N1Cc2cc3c(cc2C[C@H]1C(=O)N[C@@H](Cc1ccc(-c2ccc(C#N)cc2)cc1)C(=O)O)OCC(c1ccc(OCc2ccc(Cl)c(Cl)c2)cc1)O3` (stereo partly specified): it took 75 nM to reach a half-maximal effect (EC50).
With `Cc1nccc(-c2ccc(C[C@H](NC(=O)[C@@H]3Cc4cc5c(cc4CN3C(=O)Nc3ccc(Cl)cc3)O[C@@H](c3ccc(OCc4ccc(Cl)c(Cl)c4)cc3)CO5)C(=O)O)cc2)c1C`, the EC50 was found to be 96 nM.
Take `Cc1nc(C(=O)N2Cc3cc4c(cc3C[C@H]2C(=O)N[C@@H](Cc2ccc(-c3ccc(C#N)cc3)cc2)C(=O)O)OC[C@H](c2ccc(OCc3ccc(Cl)c(Cl)c3)cc2)O4)c(C)o1`: the EC50 was determined as 156 nM.
To `CCc1cc(-c2ccc(C[C@H](NC(=O)[C@@H]3Cc4cc5c(cc4CN3[C@@H](CC)c3ccccc3)O[C@@H](c3ccc(OCc4ccc(Cl)c(Cl)c4)cc3)CO5)C(=O)O)cc2)ccn1` belongs 13 nM; to `CCNc1nc(C)c(S(=O)(=O)N2Cc3cc4c(cc3C[C@H]2C(=O)N[C@@H](Cc2ccc(-c3ccc(F)cc3)cc2)C(=O)O)OCC(c2ccc(OCc3ccc(Cl)c(Cl)c3)cc2)O4)s1` (stereo partly specified), 131 nM.
In the case of `Cc1nccc(-c2ccc(C[C@H](NC(=O)[C@@H]3Cc4cc5c(cc4CN3C(=O)c3oc4ccccc4c3C)O[C@@H](c3ccc(OCc4ccc(Cl)c(Cl)c4)cc3)CO5)C(=O)O)cc2)c1C`, the EC50 amounted to 172 nM.
In turn, `Cc1nc(NC2CCCC2)sc1S(=O)(=O)N1Cc2cc3c(cc2C[C@H]1C(=O)N[C@@H](Cc1ccc(-c2ccc(C#N)cc2)cc1)C(=O)O)OCC(c1ccc(OCc2ccc(Cl)c(Cl)c2)cc1)O3` (stereo partly specified) registered an EC50 of 70 nM.
For `Cc1nccc(-c2ccc(C[C@H](NC(=O)[C@@H]3Cc4cc5c(cc4CN3C(=O)c3cnccn3)O[C@@H](c3ccc(OCc4ccc(Cl)c(Cl)c4)cc3)CO5)C(=O)O)cc2)c1C`, the EC50 is 166 nM.
In the case of `CC[C@@H](c1ccccc1)N1Cc2cc3c(cc2C[C@H]1C(=O)N[C@@H](Cc1ccc(-c2ccnc(C)c2)cc1)C(=O)O)OC[C@H](c1ccc(OCc2ccc(Cl)c(Cl)c2)cc1)O3`, the EC50 was 20 nM.
`Cc1ccc(COc2ccc(C3COc4cc5c(cc4O3)CN(S(=O)(=O)c3sc(N)nc3C)[C@H](C(=O)N[C@@H](Cc3ccc(-c4ccc(C#N)cc4)cc3)C(=O)O)C5)cc2)cc1Cl` (stereo partly specified): the response was half-maximal at 434 nM (EC50).
Molecule `Cc1nccc(-c2ccc(C[C@H](NC(=O)[C@@H]3Cc4cc5c(cc4CN3C(=O)c3cccc(Cl)c3)O[C@@H](c3ccc(OCc4ccc(Cl)c(Cl)c4)cc3)CO5)C(=O)O)cc2)c1C` yielded a half-maximal effective concentration (EC50) of 22 nM.
`N#Cc1ccc(-c2ccc(C[C@H](NC(=O)[C@@H]3Cc4cc5c(cc4CN3C(=O)c3ccccc3)OC(c3ccc(OCc4ccc(Cl)c(Cl)c4)cc3)CN5)C(=O)O)cc2)cc1` (stereo partly specified) had an EC50 of 410 nM.
As for `CC(=O)Nc1nc(C)c(S(=O)(=O)N2Cc3cc4c(cc3C[C@H]2C(=O)N[C@@H](Cc2ccc(-c3ccnc(C)c3C)cc2)C(=O)O)OC[C@H](c2ccc(OCc3ccc(Cl)c(Cl)c3)cc2)O4)s1`, the EC50 is 24 nM.
`CC[C@@H](c1ccccc1)N1Cc2cc3c(cc2C[C@H]1C(=O)N[C@@H](Cc1ccc(-c2ccnc(F)c2)cc1)C(=O)O)OC[C@H](c1ccc(OCc2ccc(Cl)c(Cl)c2)cc1)O3` had an EC50 of 222 nM.
To `CCCc1cc(-c2ccc(C[C@H](NC(=O)[C@@H]3Cc4cc5c(cc4CN3[C@@H](CC)c3ccccc3)O[C@@H](c3ccc(OCc4ccc(Cl)c(Cl)c4)cc3)CO5)C(=O)O)cc2)ccn1` belongs 83 nM; to `N#Cc1ccc(-c2ccc(C[C@H](NC(=O)[C@@H]3Cc4cc5c(cc4CN3Cc3ccccc3C#N)OC(c3ccc(OCc4ccc(Cl)c(Cl)c4)cc3)CO5)C(=O)O)cc2)cc1` (stereo partly specified), 657 nM.
As for `Cc1nccc(-c2ccc(C[C@H](NC(=O)[C@@H]3Cc4cc5c(cc4CN3C(=O)N[C@H](C)c3ccccc3)O[C@@H](c3ccc(OCc4ccc(Cl)cc4Cl)cc3)CO5)C(=O)O)cc2)c1C`, the midpoint of the response, the EC50, lay at 133 nM.
In turn, `Cc1nccc(Oc2ccc(C[C@H](NC(=O)[C@@H]3Cc4cc5c(cc4CN3C(=O)N[C@H](C)c3ccccc3)O[C@@H](c3ccc(OCc4ccc(Cl)c(Cl)c4)cc3)CO5)C(=O)O)cc2)c1C` showed a 50% effective concentration (EC50) of 115 nM.
Take `CC[C@@H](NC(=O)N1Cc2cc3c(cc2C[C@H]1C(=O)N[C@@H](Cc1ccc(-c2ccnc(C)c2C)cc1)C(=O)O)OC[C@H](c1ccc(OCc2ccc(Cl)c(Cl)c2)cc1)O3)c1ccccc1`: the EC50 amounted to 126 nM.
In turn, `C[C@@H](NC(=O)N1Cc2cc3c(cc2C[C@H]1C(=O)N[C@@H](Cc1ccc(-c2ccc(C#N)cc2)cc1)C(=O)O)OC[C@H](c1ccc(OCc2ccc(Cl)c(Cl)c2)cc1)O3)c1ccccc1` displayed an EC50 of 288 nM.

(Values after ChEMBL document CHEMBL3886330, “Substituted azoanthracene derivatives and intermediates for preparation thereof” (2015).)
